Source: patent US8178089B2, “Neuronal progenitors from feeder-free human embryonic stem cell culture” (The University of Georgia Research Foundation, Inc, priority 2004, dated 2012)

What was measured:
[1] = tested on: voltage-gated sodium channels; assay: Intracellular calcium measurement (Fluo-3AM, FLIPR) in human neuroprogenitor cells; assay type: cell-based; conditions: 30 μM veratridine, 96-well plates
Method: In this experiment, human neuroprogenitor cells were seeded in 96-well plates and incubated with dye loading medium containing 2 μM Fluo-3AM and 0.04% pluronic acid in Locke's buffer. After 45 minutes of incubation, the neuroprogenitor cells were gently washed three times in fresh Locke's buffer. Following the final wash, 150 μl of Locke's buffer was added to each well and the plate was transferred to the FLIPR® incubation chamber (Molecular Devices). […] These cells can therefore be used to determine the effect of an antagonist or agonist on calcium uptake or whether an agent is a likely antagonist or agonist of calcium uptake.

NEP cells [2] = assay: Proliferation of subcultured NEP cells (nuclei count by flow cytometry, day 14); assay type: cell-based, human; conditions: for proliferation rate: long term cultured NEP cells (6 mo)
Method: (§1) Effect of LIF and bFGF on subcultured NEP cells. Two groups of cultured NEP cells, one less than 1 month (<1 mo) and the other approximately 6 months (6 mo) in NB27 (described in previous section), were dissociated by 0.05% trypsin to obtain a single-cell suspension, and 50,000 cells/cm^2 were plated in one of the subculture media on polyornithine and laminin-coated dishes. Two concentrations of two growth factors (LIF; 0 or 10 ng/ml and bFGF; 0 or 20 ng/ml) in NB27, were applied to cells. Cells were harvested from each group and nuclei were counted by flow cytometry on days 1 and 14. Plating efficiency rate was calculated as the ratio of cells harvested to cells plated on day 1. Proliferation was measured on day 14. For each replicate, counted nuclei from the four treatment groups were added to obtain an overall total. The total cell number within each group was then divided by the overall total cell number and expressed as a percent.

NEP cells [3] = assay: Plating efficiency of subcultured NEP cells (day 1); assay type: cell-based, human; conditions: for plating efficiency versus control: NEP after 6 months in LIF supplemented culture; for effect on plating efficiency / plating efficiency: early NEP cells (1 mo)
Method: as §1

OLIG2 expression = assay: OLIG2 gene expression by real time RT-PCR in NEP; assay type: cell-based; conditions: human NEP, FIG. 2A
Source text: The motor neuron progenitor gene, OLIG2, is expressed early in motor neuron induction. Novitch, et al., Neuron, 31(5), 773-89 (2001). […] Subsequently, we examined expression of the motor neuron gene HLBX9 to investigate the effect of Shh and RA on motor neuron differentiation. Based on the OLIG2 results, bFGF was included at the time of RA or RA plus Shh exposure. The combination of RA and bFGF produced a 2·20 fold increased in HLBX9 expression level, and combining bFGF, Shh and RA increased HLBX9 expression 8·49 fold higher than bFGF alone in human NEP (FIG. 2B).

Compound | elevation of intracellular [Ca2+] [1] | effect on proliferation of NEP cells (NEP cells [2]; early NEP cells (1 mo), in presence or absence of bFGF) | proliferation rate (NEP cells [2]) | plating efficiency versus control (NEP cells [3]) | effect on plating efficiency (NEP cells [3]) | plating efficiency (NEP cells [3]) | OLIG2 expression change (OLIG2 expression) | cell proliferation (group cell number as percent of overall total) (NEP cells [2]; early NEP cells (1 mo), day 14, bFGF 20 ng/ml, control 8.9%) [%]
COc1ccc(C(=O)O[C@H]2CC[C@@]3(C)[C@@H]4CC[C@H]5[C@]6(O)C[C@H](O)[C@@]7(O)[C@@H](CN8C[C@@H](C)CC[C@H]8[C@@]7(C)O)[C@]6(O)C[C@@]53O[C@]24O)cc1OC [veratridine] | ~145 % of control | – | – | – | – | – | – | –
LIF: Leukemia Inhibitory Factor, growth factor | – | no effect | increased proliferation rate | higher plating efficiency than the control | no effect | about 50% | – | –
bFGF: basic fibroblast growth factor, growth factor | – | – | increased proliferation rate | higher plating efficiency than the control | no effect | about 50% | significantly increased | 38.5
